In patent US7501413B2, “Dicarboxamide derivatives” (Hoffmann-La Roche Inc., priority 2004, dated 2009) one finds Ki data, which are given here for 3 molecules.

The structures appear in SMILES notation.

T1 sequence (P00742 235-488 limits assumed): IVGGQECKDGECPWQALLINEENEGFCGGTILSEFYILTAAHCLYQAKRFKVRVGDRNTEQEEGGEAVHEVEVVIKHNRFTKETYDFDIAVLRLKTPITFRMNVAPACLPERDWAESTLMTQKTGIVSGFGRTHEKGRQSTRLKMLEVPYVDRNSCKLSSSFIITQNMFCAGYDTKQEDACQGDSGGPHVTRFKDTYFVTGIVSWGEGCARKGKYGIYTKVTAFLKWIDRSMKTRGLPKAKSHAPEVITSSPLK
T1 sequence (P00742 41-179 partner limits assumed): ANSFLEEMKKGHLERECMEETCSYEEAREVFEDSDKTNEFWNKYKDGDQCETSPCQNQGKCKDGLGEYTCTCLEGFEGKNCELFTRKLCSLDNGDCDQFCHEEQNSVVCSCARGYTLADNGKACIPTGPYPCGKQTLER

This test addresses T1, human factor Xa (Homo sapiens, UniProt P00742).
T1 construct: purchased Enzyme Research Laboratories
In words: Factor Xa chromogenic peptide substrate assay (S-2222). In kind it is biochemical. Particulars: human factor Xa 3 nM, chromogenic substrate S-2222 at 200 nM, HNPT buffer pH 7.8, room temperature; apparent Ki calculated from IC50 (Cheng-Prusoff), Km 613 μM. The protocol:
Factor Xa activity was measured spectrophotometrically in microtiter plates in a final volume of 150 μl using the following conditions: Inhibition of human factor Xa (Enzyme Research Laboratories) was tested at an enzyme concentration of 3 nM using the chromogenic substrate S-2222 (Chromogenix AB, Mölndal, Sweden) at […]. The reaction kinetics of the enzyme and the substrate were linear with both time and the enzyme concentration. The inhibitors were dissolved in DMSO and tested at various concentrations up to 100 μM. The inhibitors were diluted using HNPT buffer consisting of HEPES 100 mM, NaCl 140 mM, PEG 6000 0.1% and Tween 80 0.02%, pH 7.8. The cleavage of S-2222 by human factor Xa was followed at 405 nm for 5 minutes at room temperature. The velocity of the reaction was determined by the autoreader from the slope of the linear regression fit to 7 time points (1 minute). The initial velocity for each inhibitor concentration was determined by the slope of at least 4 time points in the linear phase by a linear regression fit (mOD/min^2). Apparent dissociation constants Ki were calculated according to Cheng and Prusoff [Cheng, Y. C.; Prusoff, W. H. Relationship between the inhibition constant (Ks) and the concentration of the inhibitor that causes 50 percent inhibition (IC50) of an enzyme reaction. Biochem. Pharmacol. 1973, 22, 3099-3108.] based on the IC50 and the respective Km, determined previously (Ki=IC50/(1+S/Km)). The Km for the substrate used was determined under the conditions of the test with at least 5 substrate concentrations ranging from 0.5 to 15 times Km. [Lottenberg R, Hall J A, Blinder M, Binder E P, Jackson C M., The action of thrombin on peptide p-nitroanilide substrates. Substrate selectivity and examination of hydrolysis under different reaction conditions. Biochim Biophys Acta. 1983 Feb. 15; 742(3):539-57]. according to Eadie [Eadie G. S. The inhibition of cholinesterase by physostigmine and prostigmine. J. Biol. Chem. 1942, 146, 85-93.]. The Km for S-2222 amounted to 613 μM.
With `COC1(CO)C[C@H](C(=O)Nc2ccc(Cl)cc2)[C@@H](C(=O)Nc2ccc(-n3ccccc3=O)cc2F)C1` (single isomer, unassigned) [Example 47, (1S,2S,4S)- or (1S,2S,4R)-4-Hydroxymethyl-4-methoxy-cyclopentane-1,2-dicarboxylic acid 1-[(4-chloro-phenyl)-amide]2-{[2-fluoro-4-(2-oxo-2H-pyridin-1-yl)-phenyl]-amide}], the Ki is 0.009 µM. Next, `O=C(Nc1ccc(Cl)cc1)[C@H]1CC2(CC2)C[C@@H]1C(=O)Nc1ccc(-n2ccccc2=O)cc1F` [Example 48, (5S,6S)-Spiro[2.4]heptane-5,6-dicarboxylic acid (4-chloro-phenyl)-amide [2-fluoro-4-(2-oxo-2H-pyridin-1-yl)-phenyl]-amide]: 0.008 µM; `O=C(Nc1ccc(Cl)cc1)[C@H]1C[C@@H](O)C[C@H]1C(=O)Nc1ccc(-n2ccccc2=O)cc1F` [Example 52, (1S,2S,4S)-4-Hydroxy-cyclopentane-1,2-dicarboxylic acid 1-[(4-chloro-phenyl)-amide]2-{[2-fluoro-4-(2-oxo-2H-pyridin-1-yl)-phenyl]-amide}]: 0.013 µM.
